Results from patent publication US20240360114A1 (SIRONAX LTD., priority 2021, published 2024).
pEC50: −log10 of the molar value.

system: HT-1080 cells; assay: HT-1080 cell viability assay (ferroptosis induced by RSL3, Cell Titer-Glo); type: cell-based; conditions: Homo sapiens, HT-1080, 20 h, ferroptosis inducer RSL3, 20 hours, ferroptosis inhibitory activity, Table 3
How it was run: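 EC50 fitted by sigmoidal dose-response regression on luminescent viability data normalized to untreated cells. Compounds ran as a 10-point, 3-fold series from 1.1 μM alongside RSL3 for 20 hours, after overnight seeding.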

| SMILES | pEC50 |
| --- | --- |
| C[C@@H]1CN(c2ccc3cc(NC4CC(CN)C4)ccc3c2)C[C@H](C)O1 (stereo partly drawn) [Compound 649, N-(3-(aminomethyl)cyclobutyl)-6-((2S,6R)-2,6-dimethylmorpholino) naphthalen-2-amine] | 7.00 to 10.00 |
| COCCNc1ccc2cc(NC3CC4(CC(N)C4)C3)ccc2c1 (stereo not drawn) [Compound 650, N2-(6-aminospiro [3.3]heptan-2-yl)-N6-(2-methoxyethyl) naphthalene-2,6-diamine] | 7.00 to 10.00 |
| CCCNc1ccc2cc(NC3CC4(CC(N)C4)C3)ccc2c1 (stereo not drawn) [Compound 651, N^2-(6-aminospiro [3.3]heptan-2-yl)-N^6-propylnaphthalene-2,6-diamine] | 7.00 to 10.00 |
| NC1CC2(C1)CC(Nc1ccc3cc(N4CCOC(C(F)(F)F)C4)ccc3c1)C2 (stereo not drawn) [Compound 653, N2-(6-(2-(trifluoromethyl)morpholino)naphthalen-2-yl)spiro[3.3]heptane-2,6-diamine] | 7.00 to 10.00 |
| CN(CC(F)(F)F)c1ccc2cc(NC3CC(N)C3)ccc2c1 (stereo not drawn) [Compound 654] | 7.00 to 10.00 |
| Cc1nc(N(C)CC(F)(F)F)ccc1NC1CC2CCC(C1)N2 (stereo not drawn) [Compound 656, N^5-(8-azabicyclo[3.2.1]octan-3-yl)-N^2,6-dimethyl-N^2-(2,2,2-trifluoroethyl)pyridine-2,5-diamine] | 7.00 to 10.00 |
| CC[C@@H]1CN(c2ccc(NC3CC4CCC(C3)N4)c(C)n2)C[C@H](CC)O1 (stereo partly drawn) [Compound 657, N-(6-((2S,6R)-2,6-diethylmorpholino)-2-methylpyridin-3-yl)-8-azabicyclo[3.2.1]octan-3-amine] | 7.00 to 10.00 |

Continued, values first:

| pEC50 | SMILES |
| --- | --- |
| 7.00 to 10.00 | CN(CC(F)(F)F)c1ccc2cc(NC3CC(N)C3)ccc2n1 (stereo not drawn) [Compound 655, N^6-(3-aminocyclobutyl)-N^2-methyl-N^2-(2,2,2-trifluoroethyl) quinoline-2,6-diamine] |
| 7.00 to 10.00 | CCNc1ccc2cc(NC3CC4(CC(N)C4)C3)ccc2c1 (stereo not drawn) [Compound 658, N2-(6-aminospiro[3.3]heptan-2-yl)-N^6-ethylnaphthalene-2,6-diamine] |
| 7.00 to 10.00 | CCc1nc(N2CC(C)OC(C(F)(F)F)C2)ccc1NC1CC2(CC(N)C2)C1 (stereo not drawn) [Compound 659, N2-(2-ethyl-6-(2-methyl-6-(trifluoromethyl)morpholino)pyridin-3-yl)spiro[3.3]heptane-2,6-diamine] |
| 7.00 to 10.00 | COCCN(CC(F)(F)F)c1ccc(NC2CC3(CC(N)C3)C2)c(C)n1 (stereo not drawn) [Compound 660, N^5-(6-aminospiro[3.3]heptan-2-yl)-N^2-(2-methoxyethyl)-6-methyl-N2-(2,2,2-trifluoroethyl)pyridine-2,5-diamine] |
| 7.00 to 10.00 | CC1CN(c2ccc3cc(NC4CC(N)C4(C)C)ccc3c2)CCO1 (stereo not drawn) [Compound 661] |
